This passage reports Ki results from patent publication US8809331B2 (Genentech, Inc., priority 2011, dated 2014).

Structures are written as SMILES.

T1 sequence (Q5S007 whole entry G2019S): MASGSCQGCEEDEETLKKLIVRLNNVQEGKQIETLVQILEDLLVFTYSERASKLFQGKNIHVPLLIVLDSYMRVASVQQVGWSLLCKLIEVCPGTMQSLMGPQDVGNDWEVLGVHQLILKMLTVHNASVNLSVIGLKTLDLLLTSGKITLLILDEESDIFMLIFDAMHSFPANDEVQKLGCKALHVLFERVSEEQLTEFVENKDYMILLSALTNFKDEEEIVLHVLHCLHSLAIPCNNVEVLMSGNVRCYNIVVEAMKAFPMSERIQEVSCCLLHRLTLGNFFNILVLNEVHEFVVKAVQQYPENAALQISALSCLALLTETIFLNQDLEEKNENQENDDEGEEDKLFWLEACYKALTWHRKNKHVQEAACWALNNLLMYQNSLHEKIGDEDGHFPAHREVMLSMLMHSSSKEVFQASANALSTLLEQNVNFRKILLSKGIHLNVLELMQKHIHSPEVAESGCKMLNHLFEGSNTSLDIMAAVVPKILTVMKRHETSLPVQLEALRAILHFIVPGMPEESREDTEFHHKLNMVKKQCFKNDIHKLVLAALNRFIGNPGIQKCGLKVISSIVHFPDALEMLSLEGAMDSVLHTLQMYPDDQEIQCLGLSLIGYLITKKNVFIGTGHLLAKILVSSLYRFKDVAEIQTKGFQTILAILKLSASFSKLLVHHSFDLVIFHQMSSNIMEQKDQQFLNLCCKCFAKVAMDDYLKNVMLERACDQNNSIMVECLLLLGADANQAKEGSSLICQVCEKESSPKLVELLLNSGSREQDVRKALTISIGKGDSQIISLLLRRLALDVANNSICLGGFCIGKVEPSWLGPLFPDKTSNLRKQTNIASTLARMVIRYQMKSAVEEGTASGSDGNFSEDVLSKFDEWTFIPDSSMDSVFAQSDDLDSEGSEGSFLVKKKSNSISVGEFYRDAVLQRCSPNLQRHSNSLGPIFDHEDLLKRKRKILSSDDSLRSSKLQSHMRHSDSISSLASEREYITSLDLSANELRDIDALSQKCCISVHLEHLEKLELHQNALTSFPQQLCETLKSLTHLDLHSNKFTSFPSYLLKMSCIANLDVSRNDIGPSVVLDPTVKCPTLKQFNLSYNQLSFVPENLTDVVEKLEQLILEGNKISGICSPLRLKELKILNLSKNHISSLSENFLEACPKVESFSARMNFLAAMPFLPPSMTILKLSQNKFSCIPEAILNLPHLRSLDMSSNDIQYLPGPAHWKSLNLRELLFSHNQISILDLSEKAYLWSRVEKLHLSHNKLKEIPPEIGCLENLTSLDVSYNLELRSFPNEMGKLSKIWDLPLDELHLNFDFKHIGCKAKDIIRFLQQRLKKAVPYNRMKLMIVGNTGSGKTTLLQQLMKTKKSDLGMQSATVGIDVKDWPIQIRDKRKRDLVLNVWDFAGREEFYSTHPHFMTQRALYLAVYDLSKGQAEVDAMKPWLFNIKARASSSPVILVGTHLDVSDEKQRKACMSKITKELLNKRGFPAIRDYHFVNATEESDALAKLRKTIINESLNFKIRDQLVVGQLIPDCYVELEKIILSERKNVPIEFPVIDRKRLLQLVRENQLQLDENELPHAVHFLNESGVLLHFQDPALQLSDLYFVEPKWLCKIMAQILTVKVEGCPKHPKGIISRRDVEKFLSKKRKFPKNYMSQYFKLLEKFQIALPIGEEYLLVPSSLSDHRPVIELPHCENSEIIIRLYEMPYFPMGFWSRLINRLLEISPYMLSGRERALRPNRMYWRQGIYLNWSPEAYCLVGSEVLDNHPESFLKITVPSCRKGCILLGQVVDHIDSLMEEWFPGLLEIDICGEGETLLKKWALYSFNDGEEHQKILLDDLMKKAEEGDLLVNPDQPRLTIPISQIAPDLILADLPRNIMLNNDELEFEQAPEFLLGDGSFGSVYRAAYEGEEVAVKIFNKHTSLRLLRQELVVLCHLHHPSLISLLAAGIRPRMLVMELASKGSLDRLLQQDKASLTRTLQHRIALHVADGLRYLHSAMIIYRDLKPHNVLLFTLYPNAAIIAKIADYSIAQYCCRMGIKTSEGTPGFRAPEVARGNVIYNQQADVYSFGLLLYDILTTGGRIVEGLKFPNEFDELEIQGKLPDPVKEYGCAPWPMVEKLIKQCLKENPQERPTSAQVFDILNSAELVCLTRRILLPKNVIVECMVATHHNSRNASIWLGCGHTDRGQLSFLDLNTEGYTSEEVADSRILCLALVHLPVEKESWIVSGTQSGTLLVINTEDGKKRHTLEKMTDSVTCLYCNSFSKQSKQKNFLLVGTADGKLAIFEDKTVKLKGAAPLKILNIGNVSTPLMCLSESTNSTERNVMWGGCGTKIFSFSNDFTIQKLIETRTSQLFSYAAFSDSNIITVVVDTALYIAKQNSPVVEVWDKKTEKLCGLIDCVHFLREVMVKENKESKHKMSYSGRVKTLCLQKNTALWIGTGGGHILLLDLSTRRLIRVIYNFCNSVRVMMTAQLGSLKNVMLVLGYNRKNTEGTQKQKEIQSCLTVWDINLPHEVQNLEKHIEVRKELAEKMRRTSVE

The test addresses T1, LRRK2 (Homo sapiens, UniProt Q5S007, G2019S).
T1 construct: purchased Invitrogen PV4882
Briefly: In Vitro LRRK2 LabChip Assay (LRRK2 Ki). In kind it is biochemical. The following applies: Table 5 compounds (formula I).
Consider `CCNc1nc(Nc2cc(OCF)c(C(=O)N3CCOCC3)cc2Cl)ncc1C(F)(F)F` [Compound 72, [5-Chloro-4-(4-ethylamino-5-trifluoromethyl-pyrimidin-2-ylamino)-2-fluoromethoxy-phenyl]-morpholin-4-yl-methanone], for which the inhibition constant Ki (as a rule, a measure of affinity in units of concentration, obtained from inhibition or displacement) came out at 1.46 nM.

The compound `CNc1nc(Nc2cc(C)c(C(=O)N3CCOCC3)cc2F)ncc1C(F)(F)F` [Compound 73, [5-Fluoro-2-methyl-4-(4-methylamino-5-trifluoromethyl-pyrimidin-2-ylamino)-phenyl]-morpholin-4-yl-methanone] came in with a Ki of 4.97 nM.

The compound `CCNc1nc(Nc2cc(F)c(C(=O)N3CCOCC3)cc2Cl)ncc1C(F)(F)F` [Compound 74, [5-Chloro-4-(4-ethylamino-5-trifluoromethyl-pyrimidin-2-ylamino)-2-fluoro-phenyl]-morpholin-4-yl-methanone] registered a Ki of 4.65 nM.

As for `COc1cc(C(=O)N2CCOCC2)c(F)cc1Nc1ncc(C(F)(F)F)c(N[C@@H]2C[C@@H]2F)n1` [Compound 75, {2-Fluoro-4-[4-((1R,2S)-2-fluoro-cyclopropylamino)-5-trifluoromethyl-pyrimidin-2-ylamino]-5-methoxy-phenyl}-morpholin-4-yl-methanone], the inhibition constant Ki is 2.19 nM.

In the case of `CNc1nc(Nc2cc(F)c(C(=O)N3CCOC(C)(C)C3)cc2OC)ncc1C(F)(F)F` [Compound 76, (2,2-Dimethyl-morpholin-4-yl)-[2-fluoro-5-methoxy-4-(4-methylamino-5-trifluoromethyl-pyrimidin-2-ylamino)-phenyl]-methanone], affinity was put at a Ki of 6.86 nM.

`CNc1nc(Nc2ccc(C(=O)N3CCOCC3)cc2OC2CC2)ncc1C(F)(F)F` [Compound 77, [3-Cyclopropoxy-4-(4-methylamino-5-trifluoromethyl-pyrimidin-2-ylamino)-phenyl]-morpholin-4-yl-methanone] had an inhibition constant Ki of 1.62 nM.

In turn, `CCNc1nc(Nc2cc(OC(F)F)c(C(=O)N3CCOCC3)cc2Cl)ncc1C(F)(F)F` [Compound 78, [5-Chloro-2-difluoromethoxy-4-(4-ethylamino-5-trifluoromethyl-pyrimidin-2-ylamino)-phenyl]-morpholin-4-yl-methanone] registered a Ki of 6.87 nM.

Turning to `CNc1nc(Nc2cc(OC(F)F)c(C(=O)N3CCOCC3)cc2Cl)ncc1C(F)(F)F` [Compound 79, [5-Chloro-2-difluoromethoxy-4-(4-methylamino-5-trifluoromethyl-pyrimidin-2-ylamino)-phenyl]-morpholin-4-yl-methanone], the affinity, expressed as Ki, was 27.1 nM.

`CCNc1nc(Nc2cc(F)c(C(=O)N3CC[C@H](F)C3)cc2OC)ncc1C#N` [Compound 80, 4-Ethylamino-2-[5-fluoro-4-((S)-3-fluoro-pyrrolidine-1-carbonyl)-2-methoxy-phenylamino]-pyrimidine-5-carbonitrile] gave an inhibition constant Ki of 10.4 nM.

In turn, `CCNc1nc(Nc2cc(OC)c(C(=O)N3CC[C@H](F)C3)cc2F)ncc1C#N` [Compound 81, 4-Ethylamino-2-[2-fluoro-4-((S)-3-fluoro-pyrrolidine-1-carbonyl)-5-methoxy-phenylamino]-pyrimidine-5-carbonitrile] came in with a Ki of 51.6 nM.

`CNc1nc(Nc2cc(OC)c(C(=O)N3CCOCC3)c(OC)c2Cl)ncc1C(F)(F)F` [Compound 82, [3-Chloro-2,6-dimethoxy-4-(4-methylamino-5-trifluoromethyl-pyrimidin-2-ylamino)-phenyl]-morpholin-4-yl-methanone]: the inhibition constant Ki was 2.82 nM.

Regarding `CNc1nc(Nc2ccc(C(=O)N3CCOC(C)(C)C3)cc2OC)ncc1C(F)(F)F` [Compound 83, (2,2-Dimethyl-morpholin-4-yl)-[3-methoxy-4-(4-methylamino-5-trifluoromethyl-pyrimidin-2-ylamino)-phenyl]-methanone], the Ki stood at 1.74 nM.

`CNc1nc(Nc2cc(C)c(C(=O)N3CCOCC3)cc2OCCF)ncc1C(F)(F)F` [Compound 84, [5-(2-Fluoro-ethoxy)-2-methyl-4-(4-methylamino-5-trifluoromethyl-pyrimidin-2-ylamino)-phenyl]-morpholin-4-yl-methanone] yielded an inhibition constant (Ki) of 2.34 nM.

As to `CNc1nc(Nc2cc(OC)c(C(=O)N3CCCC3)cc2OCCF)ncc1C(F)(F)F` [Compound 85, [5-(2-Fluoro-ethoxy)-2-methoxy-4-(4-methylamino-5-trifluoromethyl-pyrimidin-2-ylamino)-phenyl]-pyrrolidin-1-yl-methanone], the Ki is 4.72 nM.

`[2H]C1([2H])OC([2H])([2H])C([2H])([2H])N(C(=O)c2cc(Cl)c(Nc3ncc(C(F)(F)F)c(NCC)n3)cc2OC)C1([2H])[2H]` [Compound 86, (5-chloro-4-(4-(ethylamino)-5-(trifluoromethyl)pyrimidin-2-ylamino)-2-methoxyphenyl)(perdeuteromorpholino)methanone]: the Ki was found to be 4.09 nM.

Take `COc1cc(C(=O)N2CCOCC2)c(OC)cc1Nc1ncc(Cl)c(OC)n1` [Compound 87, [4-(5-Chloro-4-methoxy-pyrimidin-2-ylamino)-2,5-dimethoxy-phenyl]-morpholin-4-yl-methanone]: the Ki was found to be 5.5 nM.

For the compound `CNc1nc(Nc2cc(C)c(C(=O)N3CCOCC3)cc2OCF)ncc1C(F)(F)F` [Compound 88, [5-Fluoromethoxy-2-methyl-4-(4-methylamino-5-trifluoromethyl-pyrimidin-2-ylamino)-phenyl]-morpholin-4-yl-methanone], the Ki came to 1.01 nM.

`CCN(c1ncc(C(F)(F)F)c(NC)n1)c1cc(C)c(C(=O)N2CCOCC2)cc1OCF` [Compound 89, {4-[Ethyl-(4-methylamino-5-trifluoromethyl-pyrimidin-2-yl)-amino]-5-fluoromethoxy-2-methyl-phenyl}-morpholin-4-yl-methanone] yielded a Ki of 2600 nM.

Compound `CNc1nc(Nc2cc(OC)c(C(=O)N3CCCC3)cc2OCF)ncc1C(F)(F)F` [Compound 90, [5-Fluoromethoxy-2-methoxy-4-(4-methylamino-5-trifluoromethyl-pyrimidin-2-ylamino)-phenyl]-pyrrolidin-1-yl-methanone] had an inhibitory constant (Ki) of 3.2 nM.

Take `COc1cc(C(=O)N2CCOCC2)c(F)cc1Nc1ncc(C(F)(F)F)c(NC2CCC2)n1` [Compound 91, [4-(4-Cyclobutylamino-5-trifluoromethyl-pyrimidin-2-ylamino)-2-fluoro-5-methoxy-phenyl]-morpholin-4-yl-methanone]: the Ki was 0.31 nM.

With `CNc1nc(Nc2cc(F)c(C(=O)N3CCOCC3)cc2C)ncc1C(F)(F)F` [Compound 92, [2-Fluoro-5-methyl-4-(4-methylamino-5-trifluoromethyl-pyrimidin-2-ylamino)-phenyl]-morpholin-4-yl-methanone], the Ki was 3.64 nM.

Turning to `COc1cc(C(=O)N2CCOCC2)c(C)cc1Nc1ncc(Cl)c(OC)n1` [Compound 93, [4-(5-Chloro-4-methoxy-pyrimidin-2-ylamino)-5-methoxy-2-methyl-phenyl]-morpholin-4-yl-methanone], the Ki was determined as 5.55 nM.

Compound `CCOc1nc(Nc2cc(C)c(C(=O)N3CCOCC3)cc2OC)ncc1Cl` [Compound 94, [4-(5-Chloro-4-ethoxy-pyrimidin-2-ylamino)-5-methoxy-2-methyl-phenyl]-morpholin-4-yl-methanone] gave an inhibition constant (Ki) of 2.97 nM.

Regarding `CNc1nc(Nc2cc(F)c(C(=O)N3CCCC3)cc2OCF)ncc1C(F)(F)F` [Compound 95, [2-Fluoro-5-fluoromethoxy-4-(4-methylamino-5-trifluoromethyl-pyrimidin-2-ylamino)-phenyl]-pyrrolidin-1-yl-methanone], the affinity corresponds to a Ki of 6.93 nM.
